According to patent US20100234393A1, “USE OF A VASOPEPTIDASE INHIBITOR FOR THE TREATMENT OF PULMONARY ARTERIAL HYPERTENSION” (priority 2006, published 2010):

Tests used:
[1] = tested on: PAH model (monocrotaline, Wistar rats); conditions: literature: Schermuly et al., Amer. J. Resp. Crit. Care Med. 2004, 169, 39; cited from earlier work
[2] = tested on: PAH model in rats receiving an injection of monocrotaline; assay: Long-term efficacy of fasidotril in the monocrotaline PAH model in rats; format: in vivo, rats of the Wistar type
Procedure: The long-term efficacy of fasidotril was studied on a recognised PAH model in rats receiving an injection of the toxic alkaloid, monocrotaline (Rosenberg and Rabinovitch, Am. J. Physiol., 1988, 255, 484). After a single injection of the toxin (60 mg/kg, s.c.), the pulmonary arterial endothelium is wounded and the animals develop pulmonary arterial smooth muscle hypertrophy with severe pulmonary hypertension and right ventricular hypertrophy.
A group of 50 rats of the Wistar type weighing approximately 300 g was used, of which 10 were used as controls while 40 received a dose of 60 mg/kg of monocrotaline s.c. The latter were divided into two groups of 20 animals: the first group was fed with a standard laboratory feed while the second group was fed with a feed containing fasidotril at a concentration such that the rats received a dose of approximately 200 mg/kg/day.

| SMILES | activity in the PAH model [1] | slowing down of the rate of development of the disease ([2]; PAH model, treatment with fasidotril, conclusion from mortality and heart weight data) | mortality ([2]; after one month, monocrotaline 60 mg/kg s.c., fasidotril in feed approximately 200 mg/kg/day, "monocrotaline only" group 45%) | increase in the weight of the right ventricle (right heart hypertrophy) ([2]; after one month, monocrotaline 60 mg/kg s.c., fasidotril in feed approximately 200 mg/kg/day, monocrotaline only +74%) | increase in the weight of the right auricle (right heart hypertrophy) ([2]; after one month, monocrotaline 60 mg/kg s.c., fasidotril in feed approximately 200 mg/kg/day, monocrotaline only +140%) |
| --- | --- | --- | --- | --- | --- |
| CCCc1nn(C)c2c(=O)[nH]c(-c3cc(S(=O)(=O)N4CCN(C)CC4)ccc3OCC)nc12 [sildenafil] | active | – | – | – | – |
| CC(=O)SC[C@@H](Cc1ccc2c(c1)OCO2)C(=O)N[C@@H](C)C(=O)OCc1ccccc1 [fasidotril, benzyl (S,S)-2-(2-acetylsulphanylmethyl-3-benzo[1,3]dioxol-5-ylpropionylamino)propionate] | – | approximately a half | 20% | +50% | +57% |
